Data from PubChem BioAssay AID1919010 (Molecular Pharmacology Branch, DTP, NCI, 2023).
Several values for one entry are separate records, joined by “and”; a condition that tells them apart may be missing. Identical values can stand only once. One block for each compound: values may come before it.

System: Hs578T complex spheroid growth, percent test/control
Test: Anticancer human tumor Hs578T cell line growth inhibition [AhR];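 also: luminescent viability signal as a proxy for spheroid growth; spheroids exposed to agents for one week after three days of growth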
Conditions: for viability, T/C: stronger effect = lower value
Method in brief: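 Agents were dosed in half-log steps down from roughly clinical Cmax, or from 10 microM where Cmax was unknown, alone and with AhR antagonists. Read-out: percent test/control growth of tumor spheroids containing HUVEC and MSC stromal cells.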

[1] = curve of first compound, second compound 0.1 µM
[2] = curve of first compound, second compound 0.316 µM
[3] = curve of first compound, second compound 1 µM
[4] = curve of first compound, second compound 3.16 µM
[5] = curve of first compound, second compound 10 µM
[6] = second compound 0.1 µM, first compound 0.0316 µM
[7] = second compound 0.1 µM, first compound 0.1 µM
[8] = second compound 0.1 µM, first compound 0.316 µM
[9] = second compound 0.1 µM, first compound 1 µM
[10] = second compound 0.316 µM, first compound 0.0316 µM
[11] = second compound 0.316 µM, first compound 0.1 µM
[12] = second compound 0.316 µM, first compound 0.316 µM
[13] = second compound 0.316 µM, first compound 1 µM
[14] = second compound 1 µM, first compound 0.0316 µM
[15] = second compound 1 µM, first compound 0.1 µM
[16] = second compound 1 µM, first compound 0.316 µM
[17] = second compound 1 µM, first compound 1 µM
[18] = second compound 3.16 µM, first compound 0.0316 µM
[19] = second compound 3.16 µM, first compound 0.1 µM
[20] = second compound 3.16 µM, first compound 0.316 µM
[21] = second compound 3.16 µM, first compound 1 µM
[22] = second compound 10 µM, first compound 0.0316 µM
[23] = second compound 10 µM, first compound 0.1 µM
[24] = second compound 10 µM, first compound 0.316 µM
[25] = second compound 10 µM, first compound 1 µM
[26] = second compound 0.1 µM, first compound 3.16 µM
[27] = second compound 0.1 µM, first compound 10 µM
[28] = second compound 0.316 µM, first compound 3.16 µM
[29] = second compound 0.316 µM, first compound 10 µM
[30] = second compound 1 µM, first compound 3.16 µM
[31] = second compound 1 µM, first compound 10 µM
[32] = second compound 3.16 µM, first compound 3.16 µM
[33] = second compound 3.16 µM, first compound 10 µM
[34] = second compound 10 µM, first compound 3.16 µM
[35] = second compound 10 µM, first compound 10 µM

IC50 [1]: 526 nM
IC50 [2]: 778 nM
IC50 [3]: 615 nM
IC50 [4]: 384 nM
IC50 [5]: 860 nM
Structure (SMILES): CC1COCCN1c1cc(-c2ccnn2C)c2ccnc(-c3ccn[nH]3)c2n1 (stereo unspecified) + CC(CO)NC(=O)c1cc(-c2ccc(Cl)cc2)nn(-c2cnn(C)c2)c1=O
viability, T/C (second compound 0.1 µM, first compound 0.00316 µM): 118%
viability, T/C (second compound 0.1 µM, first compound 0.01 µM): 117%
viability, T/C [6]: 114%
viability, T/C [7]: 91.9%
viability, T/C [8]: 53.6%
viability, T/C [9]: 45.4%
viability, T/C (second compound 0.316 µM, first compound 0.00316 µM): 133%
viability, T/C (second compound 0.316 µM, first compound 0.01 µM): 124%
viability, T/C [10]: 112%
viability, T/C [11]: 96%
viability, T/C [12]: 59.7%
viability, T/C [13]: 47.8%
viability, T/C (second compound 1 µM, first compound 0.00316 µM): 123%
viability, T/C (second compound 1 µM, first compound 0.01 µM): 126%
viability, T/C [14]: 122%
viability, T/C [15]: 89.8%
viability, T/C [16]: 56.2%
viability, T/C [17]: 45.5%
viability, T/C (second compound 3.16 µM, first compound 0.00316 µM): 121%
viability, T/C (second compound 3.16 µM, first compound 0.01 µM): 122%
viability, T/C [18]: 121%
viability, T/C [19]: 86.9%
viability, T/C [20]: 51.6%
viability, T/C [21]: 46.2%
viability, T/C (second compound 10 µM, first compound 0.00316 µM): 121%
viability, T/C (second compound 10 µM, first compound 0.01 µM): 124%
viability, T/C [22]: 115%
viability, T/C [23]: 74.5%
viability, T/C [24]: 57.6%
viability, T/C [25]: 45.9%

IC50 (curve of compound): > 100 nM
Structure (SMILES): Cn1ncnc1C1c2n[nH]c(=O)c3cc(F)cc(c23)NC1c1ccc(F)cc1 (stereo unspecified)
viability, T/C (compound 0.000316 µM): 92.2% and 98.6% and 103%
viability, T/C (compound 0.001 µM): 104% and 105% and 101%
viability, T/C (compound 0.00316 µM): 113% and 105% and 109%
viability, T/C (compound 0.01 µM): 106% and 105% and 103%
viability, T/C (compound 0.0316 µM): 97.6% and 104% and 106%
viability, T/C (compound 0.1 µM): 102% and 96.8% and 95.4%

IC50 [1]: 3400 nM
IC50 [2]: 4790 nM
IC50 [3]: 3330 nM
IC50 [4]: 2870 nM
IC50 [5]: 3080 nM
Structure (SMILES): COc1ccc([C@@H](O)c2cc(-c3ncnc4cc(N5CCOCC5)ccc34)c(F)cc2Cl)nn1 + Cc1ccccc1N=Nc1ccc(NC(=O)c2ccnn2C)c(C)c1
viability, T/C [6]: 106%
viability, T/C [7]: 112%
viability, T/C [8]: 92.8%
viability, T/C [9]: 82.6%
viability, T/C [26]: 49.5%
viability, T/C [27]: 32.2%
viability, T/C [10]: 116%
viability, T/C [11]: 108%
viability, T/C [12]: 99.4%
viability, T/C [13]: 89.8%
viability, T/C [28]: 58.4%
viability, T/C [29]: 31.8%
viability, T/C [14]: 107%
viability, T/C [15]: 106%
viability, T/C [16]: 100%
viability, T/C [17]: 80.3%
viability, T/C [30]: 50.8%
viability, T/C [31]: 34.5%
viability, T/C [18]: 98.7%
viability, T/C [19]: 93.2%
viability, T/C [20]: 86.9%
viability, T/C [21]: 77.8%
viability, T/C [32]: 46.1%
viability, T/C [33]: 30.5%
viability, T/C [22]: 74.3%
viability, T/C [23]: 68.2%
viability, T/C [24]: 73.9%
viability, T/C [25]: 63.1%
viability, T/C [34]: 50.1%
viability, T/C [35]: 32.9%

IC50 [1]: 4.72 nM
IC50 [2]: 4.44 nM
IC50 [3]: 4.61 nM
IC50 [4]: 5.03 nM
IC50 [5]: 3.79 nM
Structure (SMILES): CC(C)CC(NC(=O)C(Cc1ccccc1)NC(=O)c1cnccn1)B(O)O (stereo unspecified) + CC(CO)NC(=O)c1cc(-c2ccc(Cl)cc2)nn(-c2cnn(C)c2)c1=O
viability, T/C (second compound 0.1 µM, first compound 0.000949 µM): 97.9%
viability, T/C (second compound 0.1 µM, first compound 0.003 µM): 75.7%
viability, T/C (second compound 0.1 µM, first compound 0.00949 µM): 10.4%
viability, T/C (second compound 0.1 µM, first compound 0.03 µM): 0.34%
viability, T/C (second compound 0.1 µM, first compound 0.0949 µM): 0.56%
viability, T/C (second compound 0.1 µM, first compound 0.3 µM): 0.73%
viability, T/C (second compound 0.316 µM, first compound 0.000949 µM): 109%
viability, T/C (second compound 0.316 µM, first compound 0.003 µM): 72.6%
viability, T/C (second compound 0.316 µM, first compound 0.00949 µM): 6.27%
viability, T/C (second compound 0.316 µM, first compound 0.03 µM): 0.48%
viability, T/C (second compound 0.316 µM, first compound 0.0949 µM): 0.41%
viability, T/C (second compound 0.316 µM, first compound 0.3 µM): 0.41%
viability, T/C (second compound 1 µM, first compound 0.000949 µM): 102%
viability, T/C (second compound 1 µM, first compound 0.003 µM): 72%
viability, T/C (second compound 1 µM, first compound 0.00949 µM): 13.1%
viability, T/C (second compound 1 µM, first compound 0.03 µM): 0.32%
viability, T/C (second compound 1 µM, first compound 0.0949 µM): 0.27%
viability, T/C (second compound 1 µM, first compound 0.3 µM): 0.39%
viability, T/C (second compound 3.16 µM, first compound 0.000949 µM): 102%
viability, T/C (second compound 3.16 µM, first compound 0.003 µM): 80.1%
viability, T/C (second compound 3.16 µM, first compound 0.00949 µM): 13.2%
viability, T/C (second compound 3.16 µM, first compound 0.03 µM): 0.29%
viability, T/C (second compound 3.16 µM, first compound 0.0949 µM): 0.26%
viability, T/C (second compound 3.16 µM, first compound 0.3 µM): 0.35%
viability, T/C (second compound 10 µM, first compound 0.000949 µM): 85.6%
viability, T/C (second compound 10 µM, first compound 0.003 µM): 59.8%
viability, T/C (second compound 10 µM, first compound 0.00949 µM): 11.6%
viability, T/C (second compound 10 µM, first compound 0.03 µM): 0.72%
viability, T/C (second compound 10 µM, first compound 0.0949 µM): 0.38%
viability, T/C (second compound 10 µM, first compound 0.3 µM): 0.53%

IC50 (curve of compound): > 10000 nM
Structure (SMILES): CC(C)c1c(-c2ccccc2)nc2c(C#N)c[nH]n2c1=O
viability, T/C (compound 0.0316 µM): 103% and 106% and 97.8%
viability, T/C (compound 0.1 µM): 106% and 114% and 105%
viability, T/C (compound 0.316 µM): 102% and 101% and 106%
viability, T/C (compound 1 µM): 113% and 101% and 100%
viability, T/C (compound 3.16 µM): 102% and 116% and 98.1%
viability, T/C (compound 10 µM): 101% and 115% and 93.1%

IC50 [1]: > 10000 nM
IC50 [2]: > 10000 nM
IC50 [3]: > 10000 nM
IC50 [4]: > 10000 nM
IC50 [5]: < 31.6 nM
Structure (SMILES): CC1COCCN1c1cc(C2(S(C)(=N)=O)CC2)nc(-c2ccnc3[nH]ccc23)n1 (stereo unspecified) + Cc1cncc(-c2nc(NCCc3c[nH]c4ccccc34)c3ncn(C(C)C)c3n2)c1
viability, T/C [6]: 120%
viability, T/C [7]: 115%
viability, T/C [8]: 111%
viability, T/C [9]: 102%
viability, T/C [26]: 92.1%
viability, T/C [27]: 66.2%
viability, T/C [10]: 119%
viability, T/C [11]: 119%
viability, T/C [12]: 116%
viability, T/C [13]: 113%
viability, T/C [28]: 105%
viability, T/C [29]: 60.4%
viability, T/C [14]: 106%
viability, T/C [15]: 107%
viability, T/C [16]: 118%
viability, T/C [17]: 111%
viability, T/C [30]: 98.2%
viability, T/C [31]: 62.5%
viability, T/C [18]: 62.5%
viability, T/C [19]: 57.2%
viability, T/C [20]: 59.1%
viability, T/C [21]: 64.5%
viability, T/C [32]: 55.3%
viability, T/C [33]: 43.3%
viability, T/C [22]: 8.31%
viability, T/C [23]: 8.78%
viability, T/C [24]: 9.14%
viability, T/C [25]: 8%
viability, T/C [34]: 9.08%
viability, T/C [35]: 11.8%

IC50 (curve of compound): > 300 nM
Structure (SMILES): Nc1ncn(C2CC(O)C(CO)S2)c(=O)n1 (stereo unspecified)
viability, T/C (compound 0.000949 µM): 112% and 105% and 101%
viability, T/C (compound 0.003 µM): 100% and 106% and 101%
viability, T/C (compound 0.00949 µM): 116% and 96% and 105%
viability, T/C (compound 0.03 µM): 102% and 97.7% and 101%
viability, T/C (compound 0.0949 µM): 102% and 97.4% and 104%
viability, T/C (compound 0.3 µM): 98.1% and 90.8% and 94.5%
